Measured values: US6821976B2, “S-6-hydroxy-buspirone” (Bristol-Myers Squibb Company, priority 2001, dated 2004)

Tests used:
human 5-HT1A receptor = biological target: T1, human 5-HT1A receptor (Homo sapiens, UniProt P08908); test: 5-HT1A receptor binding assay; details: preclinical studies
T1 construct: expressed in transfected cells; host or cells: HEK293 cells
T1 sequence (P08908 1-422): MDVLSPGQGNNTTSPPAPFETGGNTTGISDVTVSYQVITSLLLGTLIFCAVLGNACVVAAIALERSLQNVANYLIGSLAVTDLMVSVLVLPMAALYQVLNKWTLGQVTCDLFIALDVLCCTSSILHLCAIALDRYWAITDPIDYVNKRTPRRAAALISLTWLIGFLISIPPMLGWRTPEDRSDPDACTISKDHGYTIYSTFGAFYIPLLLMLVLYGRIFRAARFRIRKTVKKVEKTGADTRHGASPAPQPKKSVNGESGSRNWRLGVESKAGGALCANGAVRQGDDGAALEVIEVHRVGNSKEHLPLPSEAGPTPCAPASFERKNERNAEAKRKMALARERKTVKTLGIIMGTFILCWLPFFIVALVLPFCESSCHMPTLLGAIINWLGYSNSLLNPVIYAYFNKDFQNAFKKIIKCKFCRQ
Procedure: Membranes are prepared for binding using the human 5-HT1A receptor expressed in HEK293 cells. Cells are collected and ruptured using a dounce homogenizer. The cells are spun at 18000×g for 10 minutes and the pellet is resuspended in assay buffer, frozen in liquid nitrogen and kept at −80° C. until the day of the assay.
A total of 30 ug protein is used per well. The assay is carried out in 96-deep-well plates. The assay buffer is 50 mM HEPES containing 2.5 mM MgCl2 and 2 mM EGTA. The membrane preparation is incubated at 25° C. for 60 minutes with 0.1 nM to 1000 nM test compound and 1 nM 3H-8-OH-DPAT. […] serotonin serves as blocking agent to determine non-specific binding. The reaction is terminated by the addition of 1 ml of ice cold 50 mM HEPES buffer and rapid filtration through a Brandel Cell Harvester using Whatman GF/B filters. The filter pads are counted in an LKB Trilux liquid scintillation counter. IC50 values are determined using non-linear regression by Excel-fit.

[1] = Clinical studies in volunteers orally dosed with buspirone, blood plasma levels; type: in vivo, human; details: compared to buspirone blood plasma levels
[2] = system: Harlan Sprague-Dawley rat pups; test: Rat pup isolation-induced ultrasonic vocalization test; type: in vivo; details: for anxiolytic activity (ultrasonic vocalizations emitted by rat pups): dose levels of 0.3 and 1 mg/kg s.c.
Procedure: Harlan Sprague-Dawley rat pups (male and female) were housed in polycarbonate cages with the dam until 9-11 days old. Thirty minutes before testing, pups were removed from the dam, placed into a new cage with a small amount of home bedding and brought into the lab and placed under a light to maintain body temperature at 37° C. Pups were then weighed, sexed, marked and returned to the litter group until behavioral assessment. Testing took place in a Plexiglas recording chamber that contained a metal plate maintained at (18-20° C.) with a 5×5 cm grid drawn on the plate. A microphone was suspended 10 cm above the plate to record ultrasonic vocalizations. Ultrasonic calls were recorded using the Noldus UltraVox system providing online analysis of the frequency and duration of calls. The number of grid cells entered by the pup was also collected by visual scoring. […] Immediately following the collection of the baseline measures, pups were injected with vehicle or drug subcutaneously at the nape of the neck and returned to its littermates. Thirty minutes later, pups were retested on each of the dependent measures (vocalization and grid cell crossings) to assess drug effects. Unless otherwise specified, each pup was used only once. Baseline differences and percent change from baseline for the frequency of ultrasonic vocalizations and grid cell crossings were analyzed using a one-way ANOVA. Bonferroni/Dunn post hoc comparisons were performed to assess the acute drug effects with vehicle control. Log-probit analysis was used to estimate the dose (milligrams per kilogram) of each agonist predicted to inhibit isolation-induced ultrasonic vocalizations by 50% (ID50). All comparison were made with an experimental type I error rate (α) set at 0.05.
Doses for each drug were administered in an irregular order across several litters. S-6-hydroxy-buspirone and racemic 6-hydroxy-buspirone were dissolved in physiological saline (0.9% NaCl; vehicle). All injections were administered subcutaneously in a volume of 10 ml/kg. Doses of the drug refer to weight of the salt.

[3] = Pharmacokinetic studies with 6-hydroxy-buspirone, clearance from the bloodstream; details: in vivo

Structure (SMILES) | affinity for the human 5-HT1A receptor (human 5-HT1A receptor) | time course of blood plasma levels [1] | anxiolytic activity (ultrasonic vocalizations emitted by rat pups) [2] | anxiolytic response in the rat pup ultrasonic vocalization test ([2]; functional testing) | animal movement, measured by crossing grid boundary lines ([2]; rat pups, compared to the animals dosed with the single enantiomer) | clearance from the bloodstream compared with the R-enantiomer [3] | reduced clearance of S- over R- [3]
O=C1CC2(CCCC2)C(O)C(=O)N1CCCCN1CCN(c2ncccn2)CC1 (racemic) [6-hydroxy-buspirone] | strong affinity | sustained | Statistically significant anxiolytic activity | dose-dependent anxiolytic response | appeared to be reduced | – | –
O=C1CC2(CCCC2)CC(=O)N1CCCCN1CCN(c2ncccn2)CC1 [buspirone] | strong affinity | – | – | – | – | – | –
O=C1CC2(CCCC2)[C@H](O)C(=O)N1CCCCN1CCN(c2ncccn2)CC1 [S-6-hydroxy-buspirone] | – | – | Statistically significant anxiolytic activity | – | – | cleared more slowly | about three-fold
